Patent US9726659B2, “CMPF as a biomarker for diabetes and associated methods” (The Governing Council of the University of Toronto, priority 2012, dated 2017)

Experiments:
[1] = system: islets from injected mice; test: Islets isolated from IP injected mice after the OGTT (ex vivo); assay type: in vivo
Experimental: CD1 mice were injected IP with either vehicle control (black) or CMPF (white). Over the 7-day course of IP injections, mice were monitored for body weight (A), and random-fed blood glucose (B) and plasma insulin (C). […] The lower body weights on day 8 are following a 14-hour fast, immediately prior to the OGTTs. Following 7 consecutive days of CMPF injections, mice were fasted for 14 hrs and OGTTs were performed. […] (n=8 per group, p<0.05).
To assess the effect of in vivo administration of CMPF directly on the beta cells, the islets were isolated from the 3-day and 7-day IP injected mice immediately following the OGTT. […] The reduced total insulin content corresponded to lower insulin mRNA levels (FIG. 7D, 3-day injected used as representative), consistent with the in vitro studies described herein.

[2] = system: MIN6; test: Total insulin content in MIN6 cells; assay type: cell-based, murine; details: 200 uM, 4 hrs, vs vehicle
Experimental: (§1) In the absence of apoptosis and necrosis, CMPF must be impairing GSIS by causing beta cell dysfunction. First, the effect of CMPF treatment on insulin biosynthesis was investigated to determine if insulin is available to be released upon stimulation. MIN6, murine and human islets were treated with vehicle control, 20 uM and 200 uM CMPF for 4 hrs (MIN6) or 24 hrs (islets), and total insulin content measured. […] Lower total insulin content may be due to either defective insulin processing from proinsulin to mature insulin, or insufficient insulin transcription. To determine the mechanism through which CMPF is reducing total insulin content, quantitative PCR (qPCR) was performed on RNA that was isolated from murine islets treated with either vehicle control or 200 uM CMPF for 24 hrs.

[3] = system: primary murine islets; test: Glucose- and KCl-stimulated insulin secretion in primary murine islets; assay type: cell-based; details: 200 uM
Experimental: LG=2.8 mM glucose, HG=16.7 mM glucose, KCl=16.7 mM glucose+30 mM KCl. *p<0.05.
Since beta cell failure is a major underlying cause of both GDM and T2D, the effect of increased CMPF on beta cell function was investigated both in vitro and in vivo. Using physiological concentrations of CMPF (20 uM and 200 uM, as observed in our NGT-pregnant and GDM-pregnant samples respectively (FIG. 2)), as well as a vehicle control (EtOH), its effect was studied on glucose-stimulated insulin secretion (GSIS) and insulin secretion in response to direct depolarization using the secretagogue KCl in an immortalized murine beta cell line (MIN6), as well as primary isolated human and murine islets (FIG. 3A). […] Therefore, high physiologically relevant levels of CMPF impair GSIS.

[4] = system: human islets; test: Total insulin content in human islets; assay type: cell-based; details: 200 uM, 24 hrs, vs vehicle
Experimental: as §1

In the case of CCCc1oc(CCC(=O)O)c(C(=O)O)c1C [CMPF, 3-carboxy-4-methyl-5-propyl-2-furanpropanoic acid], the “GSIS of isolated islets” value ([1]; 3 days IP) is reported as “impaired GSIS”, the “insulin mRNA of isolated islets” value ([1]; 3 days IP) is reported as “decreased insulin mRNA” and the islet size ([1]; 3 days IP) is reported as “no significant difference”. The “total insulin content of isolated islets” value ([1]; 3 days IP) was “decreased total insulin content”, the “insulin secretion of isolated islets under high glucose” value ([1]; 7 days IP) was “significantly reduced insulin secretion” and the “insulin secretion of isolated islets under low glucose” value ([1]; 7 days IP) was “significantly increased insulin secretion”. The total insulin content [2] was “significantly reduced”, the GSIS ([3]; 24 hour pre-incubation, vs vehicle and 20 uM) was “impairs GSIS” and the “glucose- and KCl-stimulated insulin secretion” value ([3]; CD1 mouse islets, 24 hours) was “significantly impaired”. For the same compound, the total insulin content [4] was “significantly reduced”.
